Reference: article PMC7602288, “Characterization of Novel Dipeptidyl Peptidase-IV Inhibitory Peptides from Soft-Shelled Turtle Yolk Hydrolysate Using Orthogonal Bioassay-Guided Fractionations Coupled with In Vitro and In Silico Study” (Pharmaceuticals, 2020)
Like-named read-outs stand apart in the source and are kept apart here. Peptide text beside a SMILES is read from it.

What was measured:
[1] = target: T1, human Dipeptidyl-peptidase (DPP-IV) (Homo sapiens, UniProt P27487); test: DPP-IV inhibitory assay (Gly-Pro-p-nitroanilide substrate, absorbance 405 nm); type: biochemical; conditions: synthetic peptide; nonlinear regression, five concentrations
T1 construct: purchased Sigma Chemical Co. (St. Louis, MO, USA)
T1 sequence (P27487 whole entry): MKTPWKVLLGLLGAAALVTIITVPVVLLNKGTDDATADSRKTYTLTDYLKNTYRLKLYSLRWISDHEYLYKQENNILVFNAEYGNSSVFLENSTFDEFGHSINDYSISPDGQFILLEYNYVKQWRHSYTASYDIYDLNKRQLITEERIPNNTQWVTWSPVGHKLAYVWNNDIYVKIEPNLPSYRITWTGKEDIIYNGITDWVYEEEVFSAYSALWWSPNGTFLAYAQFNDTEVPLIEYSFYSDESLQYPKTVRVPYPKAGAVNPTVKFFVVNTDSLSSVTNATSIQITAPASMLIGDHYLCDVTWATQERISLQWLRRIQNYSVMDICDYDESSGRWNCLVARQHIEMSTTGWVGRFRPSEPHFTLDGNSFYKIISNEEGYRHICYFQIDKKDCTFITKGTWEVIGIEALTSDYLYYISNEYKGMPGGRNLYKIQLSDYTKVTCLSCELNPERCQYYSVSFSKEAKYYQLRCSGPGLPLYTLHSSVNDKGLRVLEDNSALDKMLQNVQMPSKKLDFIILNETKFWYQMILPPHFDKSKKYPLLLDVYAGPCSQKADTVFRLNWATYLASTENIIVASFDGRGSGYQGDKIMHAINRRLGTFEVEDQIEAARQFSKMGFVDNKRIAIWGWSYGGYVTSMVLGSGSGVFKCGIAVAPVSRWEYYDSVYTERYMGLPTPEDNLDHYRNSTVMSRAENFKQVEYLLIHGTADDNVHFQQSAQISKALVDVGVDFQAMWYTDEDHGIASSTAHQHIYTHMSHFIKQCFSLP
Text: Chinese soft-shelled turtle eggs were collected from Pingtung City, Taiwan. Pepsin (from porcine gastric mucosa), trypsin (from bovine pancreas), α-chymotrypsin (from bovine pancreas, thermolysin (from Geobacillus stearothermophilus), human Dipeptidyl-peptidase (DPP-IV), Gly-Pro-p-nitroaniline (GP_pNA), Iodoacetamide (IAM), and linagliptin were purchased from Sigma Chemical Co. (St. Louis, MO, USA). Formic acid (FA), acetonitrile (ACN), and ammonium bicarbonate (ABC) were acquired from J.T. Baker (Phillipsburg, NJ, USA). Sequencing grade modified trypsin was purchased from Promega (Madison, WI, USA). Trifluoroacetic acid (TFA) was acquired from Alfa Aesar (Lancashire, UK), and Wang resin was obtained from Cleo Salus (Louisville, KY, USA). Deionized water (ddH2O) was collected using the PURELAB® water purification system from ELGA LabWater (Lane End, High Wycombe, UK). All other chemicals used in this study were of reagent grades. HyperSep Retain PEP Polymeric material was purchased from Thermo Scientific Inc. Molecular weight cut-off (3 kDa MWCO) was procured from Millipore (Bedford, MA, USA).
The DPP-IV inhibitory assay was analyzed in triplicate according to the method of Lacroix and Li-Chan using 96-well microplates with slight modification. […] Linagliptin was used as a reference inhibitor in this experiment. All the reagents and samples were dissolved in 1% DMSO buffer. […] The blank and negative control contained 25 µL of 1% DMSO and 25 µL of DPP-IV buffer. The reaction was activated by 50 µL of DPP-IV (1 U/µL) while the blank sample used 50 µL of DPP-IV buffer instead. After 1 h at 37 °C, the mixture was terminated using 100 µL of 1M sodium acetate buffer at pH 4.0. A concentration of peptide that can inhibit fifty percentage of DPP-IV activity was defined as the IC50 value of DPP-IV inhibition peptide. The IC50 value was determined using different concentrations of inhibitor by nonlinear regression of Graphpad Prism 5.0 (GraphPad Software, Inc., La Jolla, CA, USA).

[2] = target: T1, human Dipeptidyl-peptidase (DPP-IV); test: Stability of synthesized peptides against DPP-IV (pre-incubation experiment, LC-MS and inhibition assay); type: biochemical; conditions: peptide 500 µM; for DPP-IV inhibitory activity, after pre-incubation: after pre-incubation with DPP-IV 3 h at 37 °C
Method: The synthetic peptide was pre-incubated with DPP-IV to determine stability against DPP-IV. […] According to the previous method by Nongonierma et al. with slight modification, 50 μL of peptides (500 µM) dissolved in 1% DMSO were pre-incubated with 100 μL of DPP-IV (1 U/μL) in DPP-IV buffer at 37 °C for 3 h. Consequently, 75 µL of pre-incubation mixture was combined with 25 µL of 2 mM NaOH and 25 µL of 1.6 mM Gly-Pro-p-nitroanilide, and further pre-incubated at 37 °C for 10 min. The mixture was added with 25 µL of DPP-IV buffer and then incubated at 37 °C for 60 min. The reaction was ended using 100 µL of 1M sodium acetate at pH 4.0. The absorbance of each reaction was measured at 405 nm in a SpectraMax 190 Microplate Reader (Molecular Devices, LLC, San Jose, CA, USA) to determine DPP-IV inhibitory activity of peptide after a pre-incubation period. The remaining 75 µL of the original mixture was heat-inactivated at 95 °C for 10 min to end enzyme activity after which it was injected into LC-MS to confirm the stability of the peptide.

DPP-IV = conditions: cited from earlier work

Row | Compound | IC50 [1] | DPP-IV inhibitory activity, after pre-incubation [2] | DPP-IV inhibitory activity, without pre-incubation [2] | also measured
1 | CC(C)C[C@H](NC(=O)[C@H](C)NC(=O)[C@H](CC(C)C)NC(=O)CNC(=O)[C@@H]1CCCN1C(=O)[C@@H](N)C(C)C)C(=O)O [VPGLAL] (H-VPGLAL-OH) | 289 ± 11.9 µM | 58.66% | 66.14% | –
2 | ILNKEGINY | – | – | – | IC50 (DPP-IV; peptides from camel milk): 348 µM
3 | LPLPL | – | – | – | IC50 (DPP-IV; peptides from milk): 325 µM
4 | CC(C)C[C@H](NC(=O)[C@@H]1CCCN1C(=O)[C@H](CC(C)C)NC(=O)CNC(=O)[C@@H](NC(=O)[C@@H](N)CC(C)C)C(C)C)C(=O)O [LVGLPL] (H-LVGLPL-OH) | > 2000 µM | – | – | –
5 | GGPASGPAV | – | – | – | IC50 (DPP-IV; peptides from salmon gelatin): 8140 µM

The next lines start with results.

Row | IC50 [1] | DPP-IV inhibitory activity, after pre-incubation [2] | DPP-IV inhibitory activity, without pre-incubation [2] | Compound | also measured
6 | 464 ± 5.52 µM | 41.09% | 52.79% | CC(C)C[C@H](NC(=O)[C@@H]1CCCN1C(=O)[C@@H](N)CC(C)C)C(=O)N[C@@H](Cc1ccccc1)C(=O)O [LPLF] (H-LPLF-OH) | –
7 | 433 ± 40.3 µM | 55.28% | 53.06% | CC(C)C[C@H](NC(=O)[C@H](CCC(N)=O)NC(=O)[C@H](CC(C)C)NC(=O)[C@@H](N)Cc1c[nH]c2ccccc12)C(=O)O [WLQL] (H-WLQL-OH) | –
8 | 270 ± 15.9 µM | 55.22% | 76.72% | CC(C)C[C@H](N)C(=O)N1CCC[C@H]1C(=O)N[C@@H](CO)C(=O)N[C@@H](Cc1c[nH]c2ccccc12)C(=O)O [LPSW] (H-LPSW-OH) | –
